From PubChem BioAssay (NCI)
“And” between values parts separate entries of the source, which are not always exact repeats. Equal values may be shown once.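 Values below derive from 48-hour exposures of cells grown in 96-well plates, with endpoints linearly interpolated between the two concentrations bracketing the appropriate inhibition level. TGI denotes the concentration required for complete inhibition of growth.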

Assays:
Assay in all cases: NCI tumour cell line growth inhibition, 48 h
HCT-15 colon = system: HCT-15 colon
HCC-2998 colon = system: HCC-2998 colon
SNB-19 CNS = system: SNB-19 CNS
SK-MEL-5 melanoma = system: SK-MEL-5 melanoma
UACC-257 melanoma = system: UACC-257 melanoma
SNB-75 CNS = system: SNB-75 CNS
OVCAR-5 ovarian = system: OVCAR-5 ovarian
HCT-116 colon = system: HCT-116 colon
UACC-62 melanoma = system: UACC-62 melanoma
NCI-H522 lung = system: NCI-H522 lung
OVCAR-8 ovarian = system: OVCAR-8 ovarian
786-0 renal = system: 786-0 renal
RPMI-8226 leukemia = system: RPMI-8226 leukemia
RXF 393 renal = system: RXF 393 renal
ACHN renal = system: ACHN renal
A498 renal = system: A498 renal
HOP-92 NSCLC = system: HOP-92 NSCLC

COc1cc2c(c(OC)c1OC)C(=O)[C@H](O)[C@H]2NC(N)=O
TGI (HCT-15 colon): > 100 µM
TGI (HCC-2998 colon): > 100 µM
TGI (SNB-19 CNS): > 100 µM
TGI (SK-MEL-5 melanoma): > 100 µM
TGI (UACC-257 melanoma): > 100 µM
TGI (SNB-75 CNS): > 100 µM
TGI (OVCAR-5 ovarian): > 100 µM
TGI (HCT-116 colon): > 100 µM
TGI (UACC-62 melanoma): 48.5 µM
TGI (NCI-H522 lung): > 100 µM
TGI (OVCAR-8 ovarian): > 100 µM
TGI (786-0 renal): > 100 µM
TGI (RPMI-8226 leukemia): > 100 µM
TGI (RXF 393 renal): > 100 µM
TGI (ACHN renal): > 100 µM

CCOC(=O)c1sc2c(c1OC(=O)c1cccs1)c(=O)n(-c1ccccc1)c(=S)n2-c1ccccc1
TGI (A498 renal): 18.9 µM
TGI (HCT-15 colon): 43.4 µM
TGI (HCC-2998 colon): 36.5 µM
TGI (SNB-19 CNS): 88.5 µM
TGI (SK-MEL-5 melanoma): 32 µM
TGI (UACC-257 melanoma): > 100 µM
TGI (SNB-75 CNS): > 100 µM
TGI (OVCAR-5 ovarian): 50.7 µM
TGI (HCT-116 colon): 22 µM
TGI (UACC-62 melanoma): 33.4 µM
TGI (NCI-H522 lung): 27.1 µM
TGI (OVCAR-8 ovarian): 44.9 µM
TGI (786-0 renal): 24.4 µM
TGI (RPMI-8226 leukemia): 31.3 µM
TGI (RXF 393 renal): 89.8 µM
TGI (HOP-92 NSCLC): 52.7 µM
TGI (ACHN renal): 37.6 µM

CCOC(=O)/C(C(=S)Nc1ccccc1)=C(/N)N1CCCC1
TGI (A498 renal): > 100 µM
TGI (HCT-15 colon): > 100 µM
TGI (HCC-2998 colon): > 100 µM
TGI (SNB-19 CNS): > 100 µM
TGI (SK-MEL-5 melanoma): > 100 µM
TGI (UACC-257 melanoma): > 100 µM
TGI (OVCAR-5 ovarian): > 100 µM
TGI (HCT-116 colon): > 100 µM
TGI (UACC-62 melanoma): > 100 µM
TGI (NCI-H522 lung): > 100 µM
TGI (OVCAR-8 ovarian): > 100 µM
TGI (786-0 renal): > 100 µM
TGI (RPMI-8226 leukemia): > 100 µM
TGI (RXF 393 renal): > 100 µM
TGI (HOP-92 NSCLC): 53.2 µM
TGI (ACHN renal): > 100 µM

COc1cc2cc(C(=O)N3CC(CCl)c4ccc(O)cc43)[nH]c2c(OC)c1OC (centres undefined)
TGI (HCT-15 colon): 0.0412 µM
TGI (HCC-2998 colon): 0.00936 µM
TGI (SNB-19 CNS): 0.453 µM and 0.21 µM
TGI (SK-MEL-5 melanoma): 0.000396 µM
TGI (SNB-75 CNS): 0.0652 µM
TGI (OVCAR-5 ovarian): 0.765 µM
TGI (UACC-62 melanoma): 0.00683 µM
TGI (NCI-H522 lung): 0.00168 µM
TGI (OVCAR-8 ovarian): 0.0253 µM
TGI (786-0 renal): 0.121 µM
TGI (RXF 393 renal): 0.000301 µM
TGI (ACHN renal): 0.000211 µM

CCOc1ccc2nc(NC(=O)c3c/c(=N\NC(=O)C[N+](C)(C)C)c4ccc(O)cc4o3)sc2c1
TGI (A498 renal): 28 µM
TGI (HCT-15 colon): 20 µM
TGI (HCC-2998 colon): 20.8 µM
TGI (SNB-19 CNS): 17.8 µM
TGI (SK-MEL-5 melanoma): 1.85 µM
TGI (UACC-257 melanoma): 3.16 µM
TGI (SNB-75 CNS): 3.53 µM
TGI (OVCAR-5 ovarian): 7.3 µM
TGI (HCT-116 colon): > 29.8 µM
TGI (UACC-62 melanoma): 3.21 µM
TGI (NCI-H522 lung): 4.14 µM
TGI (OVCAR-8 ovarian): 7.76 µM
TGI (786-0 renal): 10.9 µM
TGI (RPMI-8226 leukemia): 8.31 µM
TGI (RXF 393 renal): 14.4 µM
TGI (HOP-92 NSCLC): 6.99 µM
TGI (ACHN renal): 13.8 µM

COc1cc(OC)c(OC)cc1/C=N/N=C(\N)NO
TGI (A498 renal): > 100 µM
TGI (HCT-15 colon): > 100 µM
TGI (HCC-2998 colon): > 100 µM
TGI (SNB-19 CNS): > 100 µM
TGI (SK-MEL-5 melanoma): > 100 µM
TGI (UACC-257 melanoma): > 100 µM
TGI (SNB-75 CNS): 93.5 µM
TGI (OVCAR-5 ovarian): > 100 µM
TGI (HCT-116 colon): > 100 µM
TGI (UACC-62 melanoma): > 100 µM
TGI (NCI-H522 lung): > 100 µM
TGI (OVCAR-8 ovarian): > 100 µM
TGI (786-0 renal): > 100 µM
TGI (RPMI-8226 leukemia): > 100 µM
TGI (RXF 393 renal): > 100 µM
TGI (HOP-92 NSCLC): > 100 µM
TGI (ACHN renal): > 100 µM

O=c1cc(-c2ccccc2)[nH]c2cc(O)ccc12
TGI (A498 renal): > 100 µM
TGI (HCT-15 colon): 30.6 µM
TGI (HCC-2998 colon): 74.7 µM
TGI (SNB-19 CNS): > 100 µM
TGI (SK-MEL-5 melanoma): 83.4 µM
TGI (UACC-257 melanoma): 48.2 µM
TGI (SNB-75 CNS): 72.5 µM
TGI (OVCAR-5 ovarian): > 100 µM
TGI (HCT-116 colon): 31.3 µM
TGI (UACC-62 melanoma): 46.5 µM
TGI (NCI-H522 lung): 76.2 µM
TGI (OVCAR-8 ovarian): > 100 µM
TGI (786-0 renal): > 100 µM
TGI (RPMI-8226 leukemia): 37.6 µM
TGI (RXF 393 renal): 37.5 µM
TGI (HOP-92 NSCLC): 70.3 µM
TGI (ACHN renal): 53.7 µM

CCOC(=O)C1=C(O)C(=O)c2ccsc2C1=O
TGI (A498 renal): > 100 µM
TGI (HCT-15 colon): > 100 µM
TGI (HCC-2998 colon): > 100 µM
TGI (SNB-19 CNS): > 100 µM
TGI (SK-MEL-5 melanoma): > 100 µM
TGI (UACC-257 melanoma): > 100 µM
TGI (SNB-75 CNS): > 100 µM
TGI (OVCAR-5 ovarian): > 100 µM
TGI (HCT-116 colon): > 100 µM
TGI (UACC-62 melanoma): > 100 µM
TGI (NCI-H522 lung): > 100 µM
TGI (OVCAR-8 ovarian): > 100 µM
TGI (786-0 renal): > 100 µM
TGI (RPMI-8226 leukemia): > 100 µM
TGI (RXF 393 renal): > 100 µM
TGI (HOP-92 NSCLC): > 100 µM
TGI (ACHN renal): > 100 µM

COC(=O)C1CCC(=O)N1CN(C(C)=O)c1ccccc1 (centres undefined)
TGI (A498 renal): > 100 µM
TGI (HCT-15 colon): > 100 µM
TGI (SNB-19 CNS): > 100 µM
TGI (SK-MEL-5 melanoma): > 100 µM
TGI (UACC-257 melanoma): > 100 µM
TGI (SNB-75 CNS): > 100 µM
TGI (OVCAR-5 ovarian): > 100 µM
TGI (HCT-116 colon): > 100 µM
TGI (UACC-62 melanoma): > 100 µM
TGI (NCI-H522 lung): > 100 µM
TGI (OVCAR-8 ovarian): > 100 µM
TGI (786-0 renal): > 100 µM
TGI (RPMI-8226 leukemia): > 100 µM
TGI (HOP-92 NSCLC): > 100 µM
TGI (ACHN renal): > 100 µM

C=Cc1c(C)c(OC)cc2c1Oc1ccc(OC)c(C)c1CC2
TGI (A498 renal): > 100 µM
TGI (HCT-15 colon): > 100 µM
TGI (HCC-2998 colon): > 100 µM
TGI (SNB-19 CNS): > 100 µM
TGI (SK-MEL-5 melanoma): > 100 µM
TGI (UACC-257 melanoma): > 100 µM
TGI (SNB-75 CNS): > 100 µM
TGI (OVCAR-5 ovarian): > 100 µM
TGI (HCT-116 colon): > 100 µM
TGI (UACC-62 melanoma): > 100 µM
TGI (NCI-H522 lung): > 100 µM
TGI (OVCAR-8 ovarian): > 100 µM
TGI (786-0 renal): > 100 µM
TGI (RPMI-8226 leukemia): > 100 µM
TGI (RXF 393 renal): > 100 µM
TGI (HOP-92 NSCLC): > 100 µM
TGI (ACHN renal): > 100 µM

COc1ccc(NC(=O)C/C(C)=N\N=C(N)N)c([N+](=O)[O-])c1
TGI (A498 renal): > 100 µM
TGI (HCT-15 colon): > 100 µM
TGI (HCC-2998 colon): > 100 µM
TGI (SNB-19 CNS): > 100 µM
TGI (SK-MEL-5 melanoma): > 100 µM
TGI (UACC-257 melanoma): > 100 µM
TGI (SNB-75 CNS): > 100 µM
TGI (OVCAR-5 ovarian): > 100 µM
TGI (HCT-116 colon): > 100 µM
TGI (UACC-62 melanoma): > 100 µM
TGI (NCI-H522 lung): > 100 µM
TGI (OVCAR-8 ovarian): > 100 µM
TGI (786-0 renal): > 100 µM
TGI (RPMI-8226 leukemia): > 100 µM
TGI (RXF 393 renal): > 100 µM
TGI (HOP-92 NSCLC): > 100 µM
TGI (ACHN renal): > 100 µM

CN(C)CCCNC(=O)N/N=C/c1cccc([N+](=O)[O-])c1
TGI (HCT-15 colon): > 100 µM
TGI (SNB-19 CNS): > 100 µM
TGI (SK-MEL-5 melanoma): > 100 µM
TGI (UACC-257 melanoma): > 100 µM
TGI (SNB-75 CNS): > 100 µM
TGI (HCT-116 colon): > 100 µM
TGI (UACC-62 melanoma): > 100 µM
TGI (NCI-H522 lung): > 100 µM
TGI (OVCAR-8 ovarian): > 100 µM
TGI (786-0 renal): > 100 µM
TGI (RXF 393 renal): > 100 µM
TGI (ACHN renal): > 100 µM

CCO[C@]12C[C@H](OC)[C@@]3(O)CC(C1[C@H]3OCc1ccccc1)C13C4C2[C@H](OC)C1[C@](COC)(CN4CC)[C@H](O)C[C@@H]3OC (some centres undefined)
TGI (HCT-15 colon): > 100 µM
TGI (HCC-2998 colon): > 100 µM
TGI (SNB-19 CNS): > 100 µM
TGI (SK-MEL-5 melanoma): > 100 µM
TGI (UACC-257 melanoma): > 100 µM
TGI (SNB-75 CNS): > 100 µM
TGI (OVCAR-5 ovarian): > 100 µM
TGI (HCT-116 colon): > 100 µM
TGI (UACC-62 melanoma): > 100 µM
TGI (OVCAR-8 ovarian): > 100 µM
TGI (786-0 renal): > 100 µM
TGI (RPMI-8226 leukemia): > 100 µM
TGI (RXF 393 renal): > 100 µM
TGI (ACHN renal): > 100 µM

COc1cc(OC)c(/C=C2\N=C(C)N(Nc3nnc(NN4C(=O)/C(=C/c5c(OC)cc(OC)cc5OC)N=C4C)c4ccccc34)C2=O)c(OC)c1
TGI (A498 renal): > 100 µM
TGI (HCT-15 colon): > 100 µM
TGI (SNB-19 CNS): > 100 µM
TGI (SK-MEL-5 melanoma): > 100 µM
TGI (UACC-257 melanoma): > 100 µM
TGI (SNB-75 CNS): > 100 µM
TGI (OVCAR-5 ovarian): > 100 µM
TGI (HCT-116 colon): > 100 µM
TGI (UACC-62 melanoma): > 100 µM
TGI (NCI-H522 lung): > 100 µM
TGI (OVCAR-8 ovarian): > 100 µM
TGI (786-0 renal): > 100 µM
TGI (RPMI-8226 leukemia): > 100 µM
TGI (RXF 393 renal): > 100 µM
TGI (HOP-92 NSCLC): > 100 µM
TGI (ACHN renal): > 100 µM
